From the supplement of paper PMC10307832

Columns and labels:
Assay in all cases: relative viability (nuclei count vs DMSO), 5 days (fraction); higher = more cells survive
Dasatinib + Vorinostat = compound: Cc1nc(Nc2ncc(C(=O)Nc3c(C)cccc3Cl)s2)cc(N2CCN(CCO)CC2)n1 [Dasatinib] + O=C(CCCCCCC(=O)Nc1ccccc1)NO [Vorinostat] (partner 1 µM)
Procedure, shortened: (§1)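 Relative viability divides the nuclei count in treated wells by that in vehicle wells. Lung cancer cell lines were seeded in 1536-well plates, dosed by pin tool the next day, and fixed and stained after 5 days in one step with final 0.05% Triton X-100, 1% formaldehyde and 1 ug/ml Hoechst. Dosing was a single drug or a fixed anchor-drug dose plus five library-drug doses (not always all listed) in √10 steps, and values are medians of duplicate plates imaged at 4×.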

ALW-II-49-7 + Tozasertib = compound: Cc1ccc(C(=O)Nc2cccc(C(F)(F)F)c2)cc1Nc1cncc(C(N)=O)c1 [ALW-II-49-7] + Cc1cc(Nc2cc(N3CCN(C)CC3)nc(Sc3ccc(NC(=O)C4CC4)cc3)n2)n[nH]1 [Tozasertib] (partner 0.1 µM)
Procedure, shortened: as §1

Dasatinib + Decitabine = compound: Cc1nc(Nc2ncc(C(=O)Nc3c(C)cccc3Cl)s2)cc(N2CCN(CCO)CC2)n1 [Dasatinib] + Nc1ncn([C@H]2C[C@H](O)[C@@H](CO)O2)c(=O)n1 [Decitabine] (partner 2 µM)
Procedure, shortened: as §1

Dasatinib + Lapatinib = compound: Cc1nc(Nc2ncc(C(=O)Nc3c(C)cccc3Cl)s2)cc(N2CCN(CCO)CC2)n1 [Dasatinib] + CS(=O)(=O)CCNCc1ccc(-c2ccc3ncnc(Nc4ccc(OCc5cccc(F)c5)c(Cl)c4)c3c2)o1 [Lapatinib] (partner 2 µM)
Procedure, shortened: as §1

Cell Line	relative viability (Dasatinib + Vorinostat; first compound 0.005 µM)	relative viability (Dasatinib + Vorinostat; first compound 0.01581 µM)	relative viability (Dasatinib + Vorinostat; first compound 0.05 µM)	relative viability (Dasatinib + Vorinostat; first compound 0.1581 µM)	relative viability (Dasatinib + Vorinostat; first compound 0.5 µM)	relative viability (ALW-II-49-7 + Tozasertib; first compound 0.08 µM)	relative viability (ALW-II-49-7 + Tozasertib; first compound 0.253 µM)	relative viability (ALW-II-49-7 + Tozasertib; first compound 0.8 µM)	relative viability (ALW-II-49-7 + Tozasertib; first compound 2.53 µM)	relative viability (ALW-II-49-7 + Tozasertib; first compound 8 µM)	relative viability (Dasatinib + Decitabine; first compound 0.005 µM)	relative viability (Dasatinib + Decitabine; first compound 0.01581 µM)	relative viability (Dasatinib + Decitabine; first compound 0.05 µM)	relative viability (Dasatinib + Decitabine; first compound 0.1581 µM)	relative viability (Dasatinib + Decitabine; first compound 0.5 µM)	relative viability (Dasatinib + Lapatinib; first compound 0.005 µM)	relative viability (Dasatinib + Lapatinib; first compound 0.01581 µM)	relative viability (Dasatinib + Lapatinib; first compound 0.05 µM)	relative viability (Dasatinib + Lapatinib; first compound 0.1581 µM)	relative viability (Dasatinib + Lapatinib; first compound 0.5 µM)
LXF-289	0.754	0.779	0.762	0.495	0.254	0.187	0.194	0.168	0.184	0.182	0.398	0.336	0.31	0.358	0.142	0.941	1.01	0.971	0.604	0.223
NCI-H23	0.519	0.567	0.512	0.349	0.314	0.308	0.553	0.337	0.404	0.363	0.273	0.293	0.286	0.27	0.236	1.01	1.09	0.911	0.539	0.764
NCI-H322M	0.668	0.535	0.426	0.311	0.258	0.436	0.484	0.476	0.411	0.367	0.755	0.589	0.518	0.45	0.253	0.582	0.345	0.373	0.246	0.189
NCI-H358	0.513	0.47	0.388	0.15	0.128	0.0887	0.107	0.11	0.0927	0.085	0.211	0.173	0.169	0.127	0.146	0.484	0.377	0.295	0.251	0.291
NCI-H460	0.659	0.619	0.877	0.475	0.315	0.354	0.597	0.421	0.273	0.0328	0.568	0.444	0.352	0.29	0.286	1.06	0.598	0.743	0.482	0.376
NCI-H520	0.677	0.476	0.418	0.227	0.229	0.504	0.463	0.482	0.31	0.328	0.524	0.38	0.266	0.177	0.175	0.729	0.447	0.464	0.228	0.21
NCI-H596	0.59	0.384	0.412	0.313	0.322	1.02	0.939	0.92	0.782	1.14	0.955	0.916	0.724	0.668	0.542	1.03	0.809	0.714	0.586	0.423
NCI-H647	0.674	0.49	0.415	0.149	0.184	0.37	0.409	0.204	0.181	0.177	0.379	0.311	0.315	0.173	0.182	0.524	0.449	0.393	0.237	0.189
NCI-H650	0.413	0.564	0.381	0.384	0.287	0.719	0.737	0.673	0.577	0.481	0.325	0.281	0.318	0.341	0.302	0.471	0.907	0.723	0.555	0.387
NCI-H661	0.927	0.791	0.851	0.813	0.74	0.388	0.369	0.341	0.362	0.337	0.566	0.528	0.518	0.394	0.404	0.295	0.29	0.276	0.318	0.234
NCI-H727	1.18	0.97	0.841	0.871	0.264	0.599	0.647	0.642	0.687	0.538	0.818	0.7	0.742	0.718	0.295	0.588	0.667	0.581	0.37	0.277
NCI-H838	0.678	0.632	0.584	0.422	0.348	0.245	0.274	0.264	0.259	0.265	0.45	0.422	0.39	0.377	0.3	0.925	0.678	0.504	0.252	0.237
NCI-H1355	0.618	0.54	0.655	0.445	0.331	0.523	0.519	0.445	0.404	0.434	0.355	0.319	0.354	0.343	0.272	0.988	0.902	0.898	0.704	0.49
NCI-H1395	0.722	0.762	0.515	0.291	0.387	0.746	0.825	0.736	0.779	0.631	0.73	0.669	0.694	0.57	0.326	0.926	0.954	0.678	0.479	0.466
NCI-H1437	0.972	1.04	1.03	0.914	0.59	0.35	0.387	0.383	0.41	0.391	0.599	0.576	0.642	0.499	0.49	0.785	0.784	0.809	0.752	0.218
NCI-H1650	0.591	0.61	0.568	0.406	0.278	0.364	0.437	0.374	0.313	0.293	0.462	0.255	0.475	0.318	0.314	0.552	0.5	0.441	0.381	0.325
